Experimental data: the supplement of paper PMC10307832

Tests used:
Experiment in all cases: relative viability (nuclei count vs DMSO), 5 days (fraction); higher = more cells survive
[1] = compound: C1CNCCC1C2=CC(=NN2)C3=CC=NC=C3 + CC(C)C[C@H](NC(=O)[C@H](Cc1ccccc1)NC(=O)c1cnccn1)B(O)O [Bortezomib] (partner 0.002 µM)
Procedure, shortened: (§1)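 Nuclei were stained with Hoechst during a one-step fixation (final 0.05% Triton X-100, 1% formaldehyde, 1 ug/ml Hoechst) carried out 5 days after dosing, then counted on 4× images. The cells, lung cancer lines in 1536-well plates, had been dosed by pin tool the day after seeding with one drug alone or a fixed anchor-drug dose plus five library-drug doses (not always all listed) in √10 steps. Relative viability is the nuclei count in treated wells divided by that in vehicle wells, and each value is the median of duplicate plates.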

[2] = compound: C[C@@H](N)c1ccc(C(=O)Nc2ccnc3[nH]ccc23)cc1 + Nc1nc2[nH]cc(CCc3ccc(C(=O)N[C@@H](CCC(=O)O)C(=O)O)cc3)c2c(=O)[nH]1 [Pemetrexed] (partner 0.2 µM)
Procedure, shortened: as §1

[3] = compound: O[C@H]1CC[C@H](Nc2ncc3nc(Nc4c(F)cc(F)cc4F)n([C@H]4CCOC4)c3n2)CC1 [Tanzisertib] + COc1cccc2cc(-c3nc([C@H]4CC[C@H](C(=O)O)CC4)n4ncnc(N)c34)[nH]c12 [OSI-027] (partner 0.5 µM)
Procedure, shortened: as §1

[4] = compound: C1CNCCC1C2=CC(=NN2)C3=CC=NC=C3 + C[C@]1(O)C[C@@H](c2nc(-c3ccc4ccc(-c5ccccc5)nc4c3)c3c(N)nccn32)C1 [Linsitinib] (partner 1 µM)
Procedure, shortened: as §1

NCI-H1993 showed a relative viability ([1]; first compound 0.08 µM) of 1.02, a relative viability ([1]; first compound 0.8 µM) of 0.999 and a relative viability ([1]; first compound 2.53 µM) of 1.21. For the same cell line, the relative viability ([1]; first compound 8 µM) was 1.34, the relative viability ([2]; first compound 0.04 µM) was 0.652 and the relative viability ([2]; first compound 0.1265 µM) was 0.653. The relative viability ([2]; first compound 1.265 µM) was 0.632, the relative viability ([2]; first compound 4 µM) was 0.642 and the relative viability ([3]; first compound 0.08 µM) was 0.604. It also gave a relative viability ([3]; first compound 0.253 µM) of 0.578, a relative viability ([3]; first compound 0.8 µM) of 0.485 and a relative viability ([3]; first compound 2.53 µM) of 0.498. The relative viability ([3]; first compound 8 µM) was 0.59, the relative viability ([4]; first compound 0.08 µM) was 0.748 and the relative viability ([4]; first compound 0.8 µM) was 0.67. It also gave a relative viability ([4]; first compound 2.53 µM) of 0.732 and a relative viability ([4]; first compound 8 µM) of 0.798.

Work on NCI-H2009 yielded a relative viability ([1]; first compound 0.08 µM) of 1.04, a relative viability ([1]; first compound 0.8 µM) of 0.989 and a relative viability ([1]; first compound 2.53 µM) of 1.09. The relative viability ([1]; first compound 8 µM) was 0.99, the relative viability ([2]; first compound 0.04 µM) was 0.984 and the relative viability ([2]; first compound 0.1265 µM) was 0.975. It also gave a relative viability ([2]; first compound 0.4 µM) of 0.943, a relative viability ([2]; first compound 1.265 µM) of 0.866 and a relative viability ([2]; first compound 4 µM) of 0.765. The relative viability ([3]; first compound 0.08 µM) was 0.776, the relative viability ([3]; first compound 0.253 µM) was 0.668 and the relative viability ([3]; first compound 0.8 µM) was 0.594. The relative viability ([3]; first compound 2.53 µM) was 0.73, the relative viability ([3]; first compound 8 µM) was 0.705 and the relative viability ([4]; first compound 0.08 µM) was 1.2. For the same cell line, the relative viability ([4]; first compound 0.8 µM) was 1.18, the relative viability ([4]; first compound 2.53 µM) was 1.25 and the relative viability ([4]; first compound 8 µM) was 1.22.

Cell Line NCI-H2023 has a relative viability ([1]; first compound 0.08 µM) of 0.793, a relative viability ([1]; first compound 0.8 µM) of 0.958 and a relative viability ([1]; first compound 2.53 µM) of 1.24. It also gave a relative viability ([1]; first compound 8 µM) of 0.983, a relative viability ([2]; first compound 0.04 µM) of 0.226 and a relative viability ([2]; first compound 0.1265 µM) of 0.262. It also gave a relative viability ([2]; first compound 0.4 µM) of 0.211, a relative viability ([2]; first compound 4 µM) of 0.245 and a relative viability ([3]; first compound 0.08 µM) of 0.483. It also gave a relative viability ([3]; first compound 0.253 µM) of 0.418, a relative viability ([3]; first compound 0.8 µM) of 0.394 and a relative viability ([3]; first compound 2.53 µM) of 0.347. For the same cell line, the relative viability ([3]; first compound 8 µM) was 0.35, the relative viability ([4]; first compound 0.08 µM) was 0.62 and the relative viability ([4]; first compound 0.8 µM) was 0.671. It also gave a relative viability ([4]; first compound 2.53 µM) of 0.629 and a relative viability ([4]; first compound 8 µM) of 0.647.

Work on NCI-H2085 yielded a relative viability ([1]; first compound 0.08 µM) of 0.975, a relative viability ([1]; first compound 0.8 µM) of 0.736 and a relative viability ([1]; first compound 2.53 µM) of 1.11. It also gave a relative viability ([1]; first compound 8 µM) of 1.03, a relative viability ([2]; first compound 0.04 µM) of 0.825 and a relative viability ([2]; first compound 0.1265 µM) of 0.863. It also gave a relative viability ([2]; first compound 0.4 µM) of 0.732, a relative viability ([2]; first compound 1.265 µM) of 0.733 and a relative viability ([2]; first compound 4 µM) of 0.668. It also gave a relative viability ([3]; first compound 0.08 µM) of 0.937, a relative viability ([3]; first compound 0.253 µM) of 0.666 and a relative viability ([3]; first compound 0.8 µM) of 0.804. It also gave a relative viability ([3]; first compound 2.53 µM) of 0.705, a relative viability ([3]; first compound 8 µM) of 0.515 and a relative viability ([4]; first compound 0.08 µM) of 0.975. It also gave a relative viability ([4]; first compound 0.8 µM) of 0.732, a relative viability ([4]; first compound 2.53 µM) of 1.1 and a relative viability ([4]; first compound 8 µM) of 0.95.

NCI-H2087 gave a relative viability ([1]; first compound 0.08 µM) of 0.866, a relative viability ([1]; first compound 0.8 µM) of 1.01 and a relative viability ([1]; first compound 2.53 µM) of 0.728. It also gave a relative viability ([1]; first compound 8 µM) of 0.763, a relative viability ([2]; first compound 0.04 µM) of 0.654 and a relative viability ([2]; first compound 0.1265 µM) of 0.651. For the same cell line, the relative viability ([2]; first compound 0.4 µM) was 0.65, the relative viability ([2]; first compound 1.265 µM) was 0.571 and the relative viability ([2]; first compound 4 µM) was 0.577. It also gave a relative viability ([3]; first compound 0.08 µM) of 0.564, a relative viability ([3]; first compound 0.253 µM) of 0.578 and a relative viability ([3]; first compound 0.8 µM) of 0.712. It also gave a relative viability ([3]; first compound 2.53 µM) of 0.521, a relative viability ([3]; first compound 8 µM) of 0.338 and a relative viability ([4]; first compound 0.08 µM) of 1.04. It also gave a relative viability ([4]; first compound 0.8 µM) of 1.09, a relative viability ([4]; first compound 2.53 µM) of 0.973 and a relative viability ([4]; first compound 8 µM) of 0.96.

NCI-H2126 showed a relative viability ([1]; first compound 0.08 µM) of 1.1, a relative viability ([1]; first compound 0.8 µM) of 1.12 and a relative viability ([1]; first compound 2.53 µM) of 1.16. The relative viability ([1]; first compound 8 µM) was 1.12, the relative viability ([2]; first compound 0.04 µM) was 0.697 and the relative viability ([2]; first compound 0.1265 µM) was 0.684. It also gave a relative viability ([2]; first compound 0.4 µM) of 0.764, a relative viability ([2]; first compound 1.265 µM) of 0.57 and a relative viability ([2]; first compound 4 µM) of 0.738. The relative viability ([3]; first compound 0.08 µM) was 0.8, the relative viability ([3]; first compound 0.253 µM) was 0.723 and the relative viability ([3]; first compound 0.8 µM) was 0.742. It also gave a relative viability ([3]; first compound 2.53 µM) of 0.614, a relative viability ([3]; first compound 8 µM) of 0.548 and a relative viability ([4]; first compound 0.08 µM) of 0.718. The relative viability ([4]; first compound 0.8 µM) was 0.636, the relative viability ([4]; first compound 2.53 µM) was 0.789 and the relative viability ([4]; first compound 8 µM) was 0.748.

Cell Line NCI-H2228 has a relative viability ([1]; first compound 0.08 µM) of 0.929, a relative viability ([1]; first compound 0.8 µM) of 1.22 and a relative viability ([1]; first compound 2.53 µM) of 1.07. It also gave a relative viability ([1]; first compound 8 µM) of 0.863, a relative viability ([2]; first compound 0.04 µM) of 0.342 and a relative viability ([2]; first compound 0.1265 µM) of 0.385. It also gave a relative viability ([2]; first compound 0.4 µM) of 0.302, a relative viability ([2]; first compound 1.265 µM) of 0.347 and a relative viability ([2]; first compound 4 µM) of 0.327. For the same cell line, the relative viability ([3]; first compound 0.08 µM) was 0.822, the relative viability ([3]; first compound 0.253 µM) was 0.633 and the relative viability ([3]; first compound 0.8 µM) was 0.616. For the same cell line, the relative viability ([3]; first compound 2.53 µM) was 0.499, the relative viability ([3]; first compound 8 µM) was 0.379 and the relative viability ([4]; first compound 0.08 µM) was 0.734. The relative viability ([4]; first compound 0.8 µM) was 0.869, the relative viability ([4]; first compound 2.53 µM) was 0.503 and the relative viability ([4]; first compound 8 µM) was 0.811.

With NCI-H2347 the relative viability ([1]; first compound 0.08 µM) was 0.937, the relative viability ([1]; first compound 0.8 µM) was 0.951 and the relative viability ([1]; first compound 2.53 µM) was 1.05. For the same cell line, the relative viability ([1]; first compound 8 µM) was 0.969, the relative viability ([2]; first compound 0.04 µM) was 0.41 and the relative viability ([2]; first compound 0.1265 µM) was 0.424. It also gave a relative viability ([2]; first compound 0.4 µM) of 0.452, a relative viability ([2]; first compound 1.265 µM) of 0.388 and a relative viability ([2]; first compound 4 µM) of 0.403. For the same cell line, the relative viability ([3]; first compound 0.08 µM) was 0.447, the relative viability ([3]; first compound 0.8 µM) was 0.46 and the relative viability ([3]; first compound 2.53 µM) was 0.42. The relative viability ([3]; first compound 8 µM) was 0.407, the relative viability ([4]; first compound 0.08 µM) was 0.916 and the relative viability ([4]; first compound 0.8 µM) was 0.961. It also gave a relative viability ([4]; first compound 2.53 µM) of 1.06 and a relative viability ([4]; first compound 8 µM) of 0.936.

In the case of NCI-H2405, the relative viability ([1]; first compound 0.08 µM) was 0.94, the relative viability ([1]; first compound 0.8 µM) was 0.658 and the relative viability ([1]; first compound 2.53 µM) was 1.02. The relative viability ([1]; first compound 8 µM) was 1, the relative viability ([2]; first compound 0.1265 µM) was 1.09 and the relative viability ([2]; first compound 0.4 µM) was 0.918. For the same cell line, the relative viability ([2]; first compound 1.265 µM) was 0.567, the relative viability ([2]; first compound 4 µM) was 0.306 and the relative viability ([3]; first compound 0.08 µM) was 0.7. For the same cell line, the relative viability ([3]; first compound 0.253 µM) was 0.596, the relative viability ([3]; first compound 0.8 µM) was 0.682 and the relative viability ([3]; first compound 2.53 µM) was 0.703. For the same cell line, the relative viability ([3]; first compound 8 µM) was 0.532, the relative viability ([4]; first compound 0.08 µM) was 0.979 and the relative viability ([4]; first compound 0.8 µM) was 0.771. It also gave a relative viability ([4]; first compound 2.53 µM) of 1.07 and a relative viability ([4]; first compound 8 µM) of 0.913.
